Measurements published in patent US20240226107A1, “UBIQUITIN-SPECIFIC PROTEASE 1 (USP1) INHIBITOR” (SIMCERE ZAIMING PHARMACEUTICAL CO., LTD., priority 2021, published 2024).

Experiments:
[1] = biological target: USP1 (Recombinant Human His6-USP1/His6-UAF1 Complex Protein) (Homo sapiens (Human), UniProt O94782); assay: In vitro activity assay for USP1 (Ub-CHOP2-Reporter deubiquitination assay); format: biochemical; conditions: 0.5 h incubation at room temperature, read-out: In vitro inhibitory activity of USP1 IC50
Description: The assay kit (Ub-CHOP2-Reporter Deubiquitination Assay Kit) was purchased from Lifesensors, with Cat. No. of PR1101. The assay kit was subpackaged and stored at −80° C.
Each compound to be tested was dissolved with DMSO to 10 mM. The compound and pure DMSO (with a total volume of 50 nL) were loaded to each well of the 384-well plate by using an ECHO instrument to obtain gradient-diluted sample concentrations at different ratios. The enzyme was diluted with a freshly prepared reaction solution (20 mM Tris-HCl (pH 8.0), 2 mM CaCl2, 2 mM β-mercaptoethanol, 0.05% CHAPS, and ddH2O). To each well, 5 μL of diluted enzyme reaction solution was added, then the plate was centrifuged and oscillated to mix the enzyme and the compound, and the mixture was centrifuged again and placed on ice. The kit reporter system and the substrate were diluted with the reaction solution, then 5 μL of diluted liquid was added to each well, and mixed by centrifugation. The mixture was incubated at room temperature for 0.5 h. […] The inhibitory activity (IC50 values) of the compound on enzyme activity was calculated by using a four-parameter Logistic Model. […] A, B, C, and D are four parameters.
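Wherever GI50 is given: MDA-MB-436 proliferation over 7 days with compound, viability read as ATP luminescence (CellTiter-Glo), inhibition relative to DMSO-only wells, day 0 signal as background, GI50 from four-parameter fit.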

Chain of USP1 (Recombinant Human His6-USP1/His6-UAF1 Complex Protein) (O94782 whole entry): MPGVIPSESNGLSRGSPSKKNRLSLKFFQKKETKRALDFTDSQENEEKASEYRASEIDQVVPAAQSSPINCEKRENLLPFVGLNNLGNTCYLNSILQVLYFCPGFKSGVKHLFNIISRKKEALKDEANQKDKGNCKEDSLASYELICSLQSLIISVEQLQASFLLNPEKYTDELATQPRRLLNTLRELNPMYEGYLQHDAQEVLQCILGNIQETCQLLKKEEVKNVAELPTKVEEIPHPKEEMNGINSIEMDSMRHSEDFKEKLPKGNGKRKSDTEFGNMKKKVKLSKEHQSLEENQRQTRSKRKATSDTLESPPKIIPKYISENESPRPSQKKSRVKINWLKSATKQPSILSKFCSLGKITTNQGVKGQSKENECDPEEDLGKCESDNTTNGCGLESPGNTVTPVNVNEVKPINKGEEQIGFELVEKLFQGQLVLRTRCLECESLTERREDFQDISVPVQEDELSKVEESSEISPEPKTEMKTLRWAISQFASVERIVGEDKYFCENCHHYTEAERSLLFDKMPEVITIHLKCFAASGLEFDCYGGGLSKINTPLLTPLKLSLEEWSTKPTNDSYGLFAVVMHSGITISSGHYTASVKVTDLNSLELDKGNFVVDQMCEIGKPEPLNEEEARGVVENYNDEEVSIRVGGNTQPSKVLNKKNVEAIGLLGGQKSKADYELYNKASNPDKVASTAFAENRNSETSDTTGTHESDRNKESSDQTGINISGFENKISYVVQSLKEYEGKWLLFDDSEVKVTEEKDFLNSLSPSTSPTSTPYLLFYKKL
Chain of USP1 (Recombinant Human His6-USP1/His6-UAF1 Complex Protein) (Q8TAF3 whole entry partner): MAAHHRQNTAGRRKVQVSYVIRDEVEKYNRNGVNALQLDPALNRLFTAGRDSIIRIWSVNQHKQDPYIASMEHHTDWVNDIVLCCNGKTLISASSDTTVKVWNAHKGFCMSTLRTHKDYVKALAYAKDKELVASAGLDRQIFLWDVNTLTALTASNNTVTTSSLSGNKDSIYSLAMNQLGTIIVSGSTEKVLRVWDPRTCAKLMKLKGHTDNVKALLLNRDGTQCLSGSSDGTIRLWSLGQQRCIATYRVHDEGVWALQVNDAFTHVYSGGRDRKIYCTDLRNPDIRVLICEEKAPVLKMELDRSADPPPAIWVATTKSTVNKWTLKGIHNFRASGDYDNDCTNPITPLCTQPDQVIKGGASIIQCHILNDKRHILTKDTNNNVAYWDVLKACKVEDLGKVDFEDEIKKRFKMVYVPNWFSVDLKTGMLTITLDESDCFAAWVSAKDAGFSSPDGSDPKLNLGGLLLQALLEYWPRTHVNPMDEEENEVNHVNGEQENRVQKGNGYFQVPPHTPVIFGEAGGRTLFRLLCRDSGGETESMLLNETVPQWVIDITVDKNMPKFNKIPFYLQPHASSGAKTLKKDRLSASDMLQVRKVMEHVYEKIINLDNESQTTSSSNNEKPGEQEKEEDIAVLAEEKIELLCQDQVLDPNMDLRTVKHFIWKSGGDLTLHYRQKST

Row | IC50 [1] [nM] | GI50 (MDA-MB-436 cells) [nM] | SMILES
1 | 43.7 | 152 | COc1ncnc(C2CC2)c1-c1ncc2c(n1)N(Cc1ccc(-c3nc(C(F)(F)F)cn3C)cc1)CC(=O)N2 [Compound 5, 2-(4-cyclopropyl-6-methoxypyrimidin-5-yl)-8-(4-(1-methyl-4-(trifluoromethyl)-1H-imidazol-2-yl)benzyl)-7,8-dihydropteridin-6(5H)-one]
2 | 106 | 507 | COc1ncnc(C2CC2)c1-c1ncc2c(n1)N(Cc1c(F)cc(-c3nc(C(F)(F)F)cn3C)cc1F)CCO2 [Compound 10, 2-(4-cyclopropyl-6-methoxypyrimidin-5-yl)-8-(2,6-difluoro-4-(1-methyl-4-(trifluoromethyl)-1H-imidazol-2-yl)benzyl)-7,8-dihydro-6H-pyrimido[5,4-b][1,4]oxazine]
3 | 34 | 20.1 | COc1ncnc(C2CC2)c1-c1ncc2c(n1)N(Cc1ccc(-c3nc(C(F)(F)F)cn3C)cc1)CC(C)O2 (centres unmarked) [Compound 15, 2-(4-cyclopropyl-6-methoxypyrimidin-5-yl)-6-methyl-8-(4-(1-methyl-4-(trifluoromethyl)-1H-imidazol-2-yl)benzyl)-7,8-dihydro-6H-pyrimido[5,4-b][1,4]oxazine]
4 | 16.7 | 97.5 | COc1ncnc(C2CC2)c1-c1ncc2c(n1)N(Cc1ccc(-c3nc(C(F)(F)F)cn3C)cc1)C(=O)C(C)O2 (centres unmarked) [Compound 21, 2-(4-cyclopropyl-6-methoxypyrimidin-5-yl)-6-methyl-8-(4-(1-methyl-4-(trifluoromethyl)-1H-imidazol-2-yl)benzyl)-6H-pyrimido[5,4-b][1,4]oxazin-7(8H)-one]
5 | 21.9 | 32.5 | COc1ncnc(C2CC2)c1-c1ncc2c(n1)N(Cc1ccc(-c3nc(C(F)(F)F)cn3C)cc1)C(C)CO2 (centres unmarked) [Compound 23, 2-(4-cyclopropyl-6-methoxypyrimidin-5-yl)-7-methyl-8-(4-(1-methyl-4-(trifluoromethyl)-1H-imidazol-2-yl)benzyl)-7,8-dihydro-6H-pyrimido[5,4-b][1,4]oxazine]
6 | 27.2 | 84.8 | COc1ncnc(C2CC2)c1-c1ncc2c(n1)N(Cc1ccc(-c3nc(C(F)(F)F)cn3C)cc1)CC(=O)N2CC(F)(F)F [Compound 25, 2-(4-cyclopropyl-6-methoxypyrimidin-5-yl)-5-(2,2,2-trifluoroethyl)-8-(4-(1-methyl-4-(trifluoromethyl)-1H-imidazol-2-yl)benzyl)-7,8-dihydropteridin-6(5H)-one]
7 | 20 | 24.4 | COc1ncnc(C2CC2)c1-c1ncc2c(n1)N(Cc1ccc(-c3nc(C(F)(F)F)cn3C)cc1)C(=O)N(C)C2 [Compound 29, 7-(4-cyclopropyl-6-methoxypyrimidin-5-yl)-3-methyl-1-(4-(1-methyl-4-(trifluoromethyl)-1H-imidazol-2-yl)benzyl)-3,4-dihydropyrimido[4,5-d]pyrimidin-2(1H)-one]
8 | 18.9 | 39.6 | CCN1C(=O)CN(Cc2ccc(-c3nc(C(F)(F)F)cn3CC)cc2)c2nc(-c3c(OC)ncnc3C3CC3)ncc21 [Compound 34, 2-(4-cyclopropyl-6-methoxypyrimidin-5-yl)-5-ethyl-8-(4-(1-ethyl-4-(trifluoromethyl)-1H-imidazol-2-yl)benzyl)-7,8-dihydropteridin-6(5H)-one]
9 | 69.5 | 364 | COc1ncnc(C2CC2)c1-c1ncc2c(=O)n(C)c(=O)n(Cc3ccc(-c4nc(C(F)(F)F)cn4C)cc3)c2n1 [Compound 35, 7-(4-cyclopropyl-6-methoxypyrimidin-5-yl)-3-methyl-1-(4-(1-methyl-4-(trifluoromethyl)-1H-imidazol-2-yl)benzyl)pyrimido[4,5-d]pyrimidine-2,4(1H,3H)-dione]
10 | 82.7 | 546 | COc1ncnc(C2CC2)c1-c1ncc2c(n1)N(Cc1ccc(-c3nc(C(F)(F)F)cn3C)cc1)CN(C)C2=O [Compound 36, 7-(4-cyclopropyl-6-methoxypyrimidin-5-yl)-3-methyl-1-(4-(1-methyl-4-(trifluoromethyl)-1H-imidazol-2-yl)benzyl)-2,3-dihydropyrimido[4,5-d]pyrimidin-4(1H)-one]
11 | 86.6 | 474 | COc1ncnc(C2CC2)c1-c1ncc2c(n1)N(Cc1ccc(-c3nc(C(F)(F)F)cn3C)cc1)C1CCCN1C2=O (centres unmarked) [Compound 42, 2-(4-cyclopropyl-6-methoxypyrimidin-5-yl)-10-(4-(1-methyl-4-(trifluoromethyl)-1H-imidazol-2-yl)benzyl)-8,9,9a,10-tetrahydropyrimido[4,5-d]pyrrolo[1,2-a]pyrimidin-5(7H)-one]
12 | 13.9 | 27.5 | COc1ncnc(C2CC2)c1-c1ncc2c(n1)N(Cc1ccc(-n3nc(C(F)(F)F)cc3C)c(F)c1)CC(=O)N2C [Compound 44, 2-(4-cyclopropyl-6-methoxypyrimidin-5-yl)-5-methyl-8-(3-fluoro-4-(5-methyl-3-(trifluoromethyl)-1H-pyrazol-1-yl)benzyl)-7,8-dihydropteridin-6(5H)-one]
13 | 8.1 | 19.8 | Cn1cc(C(F)(F)F)nc1-c1ccc(CN2C(=O)OC(C)(C)c3cnc(-c4c(OC(F)F)ncnc4C4CC4)nc32)cc1F [Compound 57, 7-(4-cyclopropyl-6-(difluoromethoxy)pyrimidin-5-yl)-1-(3-fluoro-4-(1-methyl-4-(trifluoromethyl)-1H-imidazol-2-yl)benzyl)-4,4-dimethyl-1,4-dihydro-2H-pyrimido[4,5-d][1,3]oxazin-2-one]
14 | 36.9 | 81.8 | COc1ncnc(C2CC2)c1-c1ncc2c(n1)N(Cc1ccc(-c3nc(C(F)(F)F)cn3C)c(F)c1)C(=O)OC2(C)CO (centres unmarked) [Compound 58, 7-(4-cyclopropyl-6-methoxypyrimidin-5-yl)-1-(3-fluoro-4-(1-methyl-4-(trifluoromethyl)-1H-imidazol-2-yl)benzyl)-4-(hydroxymethyl)-4-methyl-1,4-dihydro-2H-pyrimido[4,5-d][1,3]oxazin-2-one]
15 | 36.3 | 81.4 | COc1ncnc(C2CC2)c1-c1ncc2nc(C)c(=O)n(Cc3ccc(-c4nc(C(F)(F)F)cn4C)cc3)c2n1 [Compound 61, 2-(4-cyclopropyl-6-methoxypyrimidin-5-yl)-6-methyl-8-(4-(1-methyl-4-(trifluoromethyl)-1H-imidazol-2-yl)benzyl)pteridin-7(8H)-one]
16 | 9.8 | 12.3 | COc1ncnc(C2CC2)c1-c1ncc2c(n1)N(Cc1cc(F)c(-c3nc(C(F)(F)F)cn3C)c(F)c1)CCO2 [Compound 62]
17 | 11.3 | 24.5 | COc1ncnc(C2CC2)c1-c1ncc2c(n1)N(Cc1cc(F)c(-c3nc(C(F)(F)F)cn3C)cc1F)CCO2 [Compound 63]
18 | 28.5 | 26.8 | COc1ncnc(C2CC2)c1-c1ncc2c(n1)N(Cc1ccc(-c3nc(C(F)(F)F)cn3C)c(F)c1)CC(=O)N2C [Compound 65, 2-(4-cyclopropyl-6-methoxypyrimidin-5-yl)-5-methyl-8-(3-fluoro-4-(1-methyl-4-(trifluoromethyl)-1H-imidazol-2-yl)benzyl)-7,8-dihydropteridin-6(5H)-one]
19 | 16.8 | 17.3 | COc1ncnc(C2CC2)c1-c1ncc2c(n1)N(Cc1ccc(-c3nc(C(F)(F)F)cn3C(C)C)c(F)c1)CC(=O)N2C [Compound 67, 2-(4-cyclopropyl-6-methoxypyrimidin-5-yl)-5-methyl-8-(3-fluoro-4-(1-isopropyl-4-(trifluoromethyl)-1H-imidazol-2-yl)benzyl)-7,8-dihydropteridin-6(5H)-one]
